Assay results reported in ChEMBL document CHEMBL5120822, “Inhibition of the P2X7/NLRP3 Inflammasome Signaling Pathway by Deacetylgedunin from Toona sinensis” (J Nat Prod, 2022).
Activity calls are given as the source filed them. The rule behind the calls is not given here.

Legend:
[1] = tested on: RAW264.7; experiment: Cytotoxicity against mouse RAW264.7 cells derived macrophage assessed as reduction in cell viability upto 40 uM incubated for 24 hrs by CCK-8 assay; assay type: toxicity, cell-based; settings: raw264.7, 24 h
[2] = tested on: J774.1; experiment: Cytotoxicity against mouse J774.1 cells derived macrophage assessed as reduction in cell viability upto 40 uM incubated for 24 hrs by CCK-8 assay; assay type: toxicity, cell-based; settings: j774.1, 24 h
[3] = tested on: THP-1; experiment: Cytotoxicity against human THP-1 cells derived macrophage assessed as reduction in cell viability upto 40 uM incubated for 24 hrs by CCK-8 assay; assay type: toxicity, cell-based; settings: thp-1, 24 h
[4] = tested on: RAW264.7; experiment: Antiinflammatory activity in mouse RAW264.7 assessed as inhibition of LPS-induced NO production incubated for 1 hrs followed by LPS stimulation for 18 hrs by Griess reagent based assay; assay type: functional, cell-based
[5] = tested on: THP-1; experiment: Antiinflammatory activity against PMA-differentiated human THP-1 cells assessed as reduction in IL-1beta level at 20 uM incubated for 1 hrs followed by LPS stimulation for 12 hrs and ATP addition for 0.5 hrs by ELISA; assay type: functional, cell-based; settings: time 13.5 hrs
[6] = tested on: THP-1; experiment: Cytotoxicity against human THP-1 cells assessed as survival rate at < 40 uM by CCK8 assay; assay type: toxicity, cell-based; settings: thp-1, 40 µM
[7] = biological target: NACHT, LRR and PYD domains-containing protein 3 (Homo sapiens) (UniProt Q96P20); experiment: Inhibition of NLRP3 inflammasome activation in PMA-differentiated and LPS/NIG-stimulated human THP-1 cells assessed as inhibition of IL-1beta secretion at 20 uM incubated for 1 hrs followed by LPS stimulation for 12 hrs and NIG addition for 2 hrs by ELISA; assay type: cell-based; settings: time 15.0 hrs
[8] = tested on: THP-1; experiment: Antiinflammatory activity against PMA-differentiated and LPS/ATP stimulated human THP-1 cells assessed as increase in cell viability at 5 to 20 uM incubated for 1 hrs followed by LPS stimulation for 12 hrs and ATP addition for 0.5 hrs by CCK8 assay; assay type: functional, cell-based; settings: dose 5-20 µM, time 13.5 hrs
[9] = biological target: NACHT, LRR and PYD domains-containing protein 3 (Homo sapiens) (UniProt Q96P20); experiment: (§1) Inhibition of NLRP3 inflammasome activation in PMA-differentiated and LPS/ATP-stimulated human THP-1 cells assessed as inhibition of IL-1beta secretion at 5 to 20 uM incubated for 1 hrs followed by LPS stimulation for 12 hrs and ATP addition for 0.5 hrs by ELISA; assay type: cell-based; settings: dose 5-20 µM, time 13.5 hrs, DDE = dose-dependent effect
[10] = biological target: NACHT, LRR and PYD domains-containing protein 3 (Homo sapiens) (UniProt Q96P20); experiment: (§2) Inhibition of NLRP3 inflammasome activation in PMA-differentiated and LPS/ATP-stimulated human THP-1 cells assessed as decrease in caspase-1 expression at 5 to 20 uM incubated for 1 hrs followed by LPS stimulation for 12 hrs and ATP addition for 0.5 hrs by western blot analysis; assay type: cell-based; settings: dose 5-20 µM, time 13.5 hrs
[11] = biological target: NACHT, LRR and PYD domains-containing protein 3 (Homo sapiens) (UniProt Q96P20); experiment: Inhibition of NLRP3 inflammasome activation in PMA-differentiated and LPS/ATP-stimulated human THP-1 cells assessed as decrease in pro-IL-1beta expression at 5 to 20 uM incubated for 1 hrs followed by LPS stimulation for 12 hrs and ATP addition for 0.5 hrs by western blot analysis; assay type: cell-based; settings: dose 5-20 µM, time 13.5 hrs
[12] = biological target: NACHT, LRR and PYD domains-containing protein 3 (Homo sapiens) (UniProt Q96P20); experiment: Inhibition of NLRP3 inflammasome activation in PMA-differentiated and LPS/MSU-stimulated human THP-1 cells assessed as inhibition of IL-1beta secretion at 20 uM incubated for 1 hrs followed by LPS stimulation for 12 hrs and MSU addition for 6 hrs by ELISA; assay type: cell-based; settings: time 19.0 hrs
[13] = biological target: NACHT, LRR and PYD domains-containing protein 3 (Homo sapiens) (UniProt Q96P20); experiment: as §2, with “downregulation of NF-KappaB p65 subunit phosphorylation” for “decrease in caspase-1 expression”, “Western” for “western”; assay type: cell-based; settings: dose 5-20 µM, time 13.5 hrs
[14] = biological target: NACHT, LRR and PYD domains-containing protein 3 (Homo sapiens) (UniProt Q96P20); experiment: Inhibition of NLRP3 inflammasome activation in PMA-differentiated and LPS/ATP-stimulated human THP-1 cells assessed as reduction in total NF-KappaB P65 nuclear expression at 5 to 20 uM incubated for 1 hrs followed by LPS stimulation for 12 hrs and ATP addition for 0.5 hrs by Western blot analysis; assay type: cell-based; settings: dose 5-20 µM, time 13.5 hrs
[15] = biological target: NACHT, LRR and PYD domains-containing protein 3 (Homo sapiens) (UniProt Q96P20); experiment: Inhibition of NLRP3 inflammasome activation in PMA-differentiated and LPS/ATP-stimulated human THP-1 cells assessed as reduction in nuclear localization of NF-KappaB at 20 uM incubated for 1 hrs followed by LPS stimulation for 12 hrs and ATP addition for 0.5 hrs by DAPI staining based immunofluorescence analysis; assay type: cell-based; settings: time 13.5 hrs
[16] = biological target: NACHT, LRR and PYD domains-containing protein 3 (Homo sapiens) (UniProt Q96P20); experiment: (§3) Inhibition of NLRP3 inflammasome activation in PMA-differentiated and LPS/ATP-stimulated human THP-1 cells assessed as inhibition of IL-6 secretion at 20 uM incubated for 1 hrs followed by LPS stimulation for 12 hrs and ATP addition for 0.5 hrs by ELISA; assay type: cell-based; settings: time 13.5 hrs
[17] = biological target: NACHT, LRR and PYD domains-containing protein 3 (Homo sapiens) (UniProt Q96P20); experiment: Inhibition of NLRP3 inflammasome activation in PMA-differentiated and LPS/NIG-stimulated human THP-1 cells assessed as decrease of ASC polymers at 20 uM incubated for 1 hrs followed by LPS stimulation for 12 hrs and NIG addition for 2 hrs by Western blot analysis; assay type: cell-based; settings: time 15.0 hrs
[18] = biological target: NACHT, LRR and PYD domains-containing protein 3 (Homo sapiens) (UniProt Q96P20); experiment: as §1, with “assessed as increase in potassium ion concentration” for “inhibition of IL-1beta secretion”, “EPG-2 AM staining based flow cytometry” for “ELISA”; assay type: cell-based; settings: dose 5-20 µM, time 13.5 hrs
[19] = biological target: NACHT, LRR and PYD domains-containing protein 3 (Homo sapiens) (UniProt Q96P20); experiment: as §3, with “assessed as increase in intracellular chloride concentration” for “inhibition of IL-6 secretion”, “MQAE staining based flow cytometry” for “ELISA”; assay type: cell-based; settings: time 13.5 hrs

Chain of NACHT, LRR and PYD domains-containing protein 3 (Homo sapiens) (Q96P20 whole entry, the tested form may be a part): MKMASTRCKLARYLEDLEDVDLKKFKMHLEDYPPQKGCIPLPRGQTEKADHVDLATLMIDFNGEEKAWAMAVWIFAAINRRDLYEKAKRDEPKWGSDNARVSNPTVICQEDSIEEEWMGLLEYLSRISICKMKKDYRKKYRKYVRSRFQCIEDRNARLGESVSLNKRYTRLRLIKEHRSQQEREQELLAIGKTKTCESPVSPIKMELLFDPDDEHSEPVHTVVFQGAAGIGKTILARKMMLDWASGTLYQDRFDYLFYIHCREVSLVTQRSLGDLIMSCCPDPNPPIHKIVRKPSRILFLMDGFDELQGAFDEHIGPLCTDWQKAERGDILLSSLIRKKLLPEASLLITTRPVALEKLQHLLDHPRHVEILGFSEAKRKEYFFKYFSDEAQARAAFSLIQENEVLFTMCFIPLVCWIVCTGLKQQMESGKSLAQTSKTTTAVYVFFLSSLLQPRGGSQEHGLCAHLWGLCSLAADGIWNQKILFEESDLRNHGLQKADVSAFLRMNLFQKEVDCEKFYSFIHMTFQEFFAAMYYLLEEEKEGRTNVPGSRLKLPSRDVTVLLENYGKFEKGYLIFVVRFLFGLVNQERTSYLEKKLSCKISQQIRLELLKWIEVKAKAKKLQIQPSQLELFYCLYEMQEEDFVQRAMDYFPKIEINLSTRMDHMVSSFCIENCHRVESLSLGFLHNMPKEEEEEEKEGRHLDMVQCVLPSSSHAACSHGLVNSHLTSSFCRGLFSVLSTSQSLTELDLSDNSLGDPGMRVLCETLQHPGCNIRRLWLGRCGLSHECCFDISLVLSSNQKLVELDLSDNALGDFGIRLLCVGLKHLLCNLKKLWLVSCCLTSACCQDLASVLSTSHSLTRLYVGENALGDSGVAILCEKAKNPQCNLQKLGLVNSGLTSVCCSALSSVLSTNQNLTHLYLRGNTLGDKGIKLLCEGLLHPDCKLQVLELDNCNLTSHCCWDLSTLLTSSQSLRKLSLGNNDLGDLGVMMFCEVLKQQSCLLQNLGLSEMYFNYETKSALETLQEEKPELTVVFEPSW

Compound: CC1(C)C(=O)C=C[C@]2(C)[C@H]3CC[C@@]4(C)[C@H](c5ccoc5)OC(=O)[C@H]5O[C@]54[C@]3(C)[C@H](O)C[C@@H]12 [DEACETYLGEDUNIN]
- Activity [1]: Non-Toxic
- Activity [2]: Non-Toxic
- Activity [3]: Non-Toxic
- IC50 [4]: 9.19 µM
- Activity [5]: Active
- Activity [6]: Non-Toxic
- inhibition [7]: Active
- Activity [8]: Active
- inhibition [9]: Dde
- inhibition [10]: Active
- inhibition [11]: Active
- inhibition [12]: Active
- inhibition [13]: Active
- inhibition [14]: Active
- inhibition [15]: Active
- inhibition [16]: Active
- inhibition [17]: Active
- inhibition [18]: Active
- inhibition [19]: Active
